Among the data in ChEMBL document CHEMBL1255508, “Neopetrosiamine A, biologically active bis-piperidine alkaloid from the Caribbean sea sponge Neopetrosia proxima” (Bioorg Med Chem Lett, 2010) are IC50 and MIC values, retold here.

pIC50: −log10 of the molar value. ≈ marks a conversion by molar mass, not a printed value.

For one assay, the system named is Vero. As to the kind of experiment: Cytotoxicity against african green monkey Vero cells. Format: cell-based. The conditions noted are these: Chlorocebus sabaeus.
Assay [1] concerns Mycobacterium tuberculosis. As to the kind of experiment: Antimycobacterial activity against Mycobacterium tuberculosis H37Rv by microplate alamar blue assay. Format: functional. (In general: The colour change of resazurin is a common sign of viable cells or microbes.)
The subject of the next assay is Plasmodium falciparum. As to the kind of experiment: Antiplasmodial activity against Plasmodium falciparum. Format: functional, organism-based.
For a further assay, the system named is CCRF-CEM. As to the kind of experiment: […] activity against human CCRF-CEM cells. Format: functional, cell-based.
A further assay has as its system Malme-3M. The assay can be described thus: […] activity against human MALME-3M cells. Format: functional, cell-based.
The subject of the next assay is MCF7. As to the kind of experiment: […] activity against human MCF7 cells. Format: functional, cell-based.

The term IC50 denotes the concentration needed to halve the response being measured. A word on the MIC: it is the smallest concentration in the dilution series that meets the test's criterion for growth inhibition. What is called pIC50 is −log10 of the IC50, conventionally taken in molar units. `C1=C\CCCCN2CC[C@@H]3[C@@H](CCCC/C=C\CCCCN4C[C@H](CCCC/1)C[C@H]3C4)C2` [NEOPETROSIAMINE A] returned an IC50 in the assay with Vero of 42.4 µg/mL (≈ 96.2 µM). The compound also gave a minimal inhibitory concentration (MIC) in assay [1] of 7.5 µg/mL (≈ 17 µM). Further, the negative logarithm of the IC50 (pIC50) in the assay on Plasmodium falciparum was 5.64; in the assay on CCRF-CEM, 5.70; in the assay with Malme-3M, 5.82; in the assay on MCF7, 5.46.
